Structures are written as SMILES. Where a SMILES comes first, the peptide text is derived from it. Bridges are numbered along the chain shown (N, C = ends). [ ]: non-standard residue; d: D form. The star is where a group is joined. hPhe(3,5-F2-4-CF3) = N[C@@H](CCc1cc(F)c(C(F)(F)F)c(F)c1)C(=O)O; hPhe(3-Cl-4-CF3) = N[C@@H](CCc1ccc(C(F)(F)F)c(Cl)c1)C(=O)O; NPrPhe(4-CF3) = CCCN[C@@H](Cc1ccc(C(F)(F)F)cc1)C(=O)O; NMeGly(cPent) = CN[C@H](C(=O)O)C1CCCC1; NMeD = CN[C@@H](CC(=O)O)C(=O)O; NMeL = CN[C@@H](CC(C)C)C(=O)O; Oxazolidin(3-yl) = C1CN(*)CO1; αMeL = CC(C)C[C@](C)(N)C(=O)O; Morpholide = C1CN(*)CCO1; Ac5c = NC1(C(=O)O)CCCC1; Aze = O=C(O)[C@@H]1CCN1; Sar = CNCC(=O)O

Here are results for seven molecules from patent publication US20250230193A1, “CYCLIC COMPOUND HAVING SELECTIVE KRAS INHIBITORY EFFECT ON HRAS AND NRAS” (CHUGAI SEIYAKU KABUSHIKI KAISHA, priority 2022, published 2025).

The target in assay [1] is GDP-bound HRAS wild-type protein (Homo sapiens, UniProt P01112). Put plainly: Binding to HRAS by surface plasmon resonance (SPR), Single Cycle Kinetics. (In SPR one partner is held on a chip, and binding of the other changes the refractive index at the surface.)
GDP-bound HRAS wild-type protein, sequence (P01112 whole entry): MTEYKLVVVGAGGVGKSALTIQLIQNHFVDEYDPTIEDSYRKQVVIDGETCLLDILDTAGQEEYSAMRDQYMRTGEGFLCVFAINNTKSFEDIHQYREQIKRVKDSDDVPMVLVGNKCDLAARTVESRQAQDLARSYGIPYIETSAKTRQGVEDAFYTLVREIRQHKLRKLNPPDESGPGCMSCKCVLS
Assay [2] has as its target GDP-bound NRAS wild-type protein (Homo sapiens, UniProt P01111). In words: Binding to NRAS by surface plasmon resonance (SPR), Single Cycle Kinetics.

GDP-bound NRAS wild-type protein, sequence (P01111 whole entry): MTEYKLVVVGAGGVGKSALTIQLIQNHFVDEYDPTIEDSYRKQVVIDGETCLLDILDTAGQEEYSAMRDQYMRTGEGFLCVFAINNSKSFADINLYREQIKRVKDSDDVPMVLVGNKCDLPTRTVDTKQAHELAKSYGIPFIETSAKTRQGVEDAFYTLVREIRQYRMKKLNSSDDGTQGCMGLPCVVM

Regarding `CCCN1C(=O)CN(C)C(=O)[C@@H]2CCN2C(=O)[C@H]([C@@H](C)CC)NC(=O)[C@H](CC(C)C)N(C)C(=O)C[C@@H](C(=O)N2CCOCC2)N(C)C(=O)[C@H](C2CCCC2)N(C)C(=O)[C@](C)(CC(C)C)NC(=O)[C@@H]2CCCN2C(=O)[C@H](CCc2cc(F)c(C(F)(F)F)c(F)c2)NC(=O)CN(C)C(=O)[C@@H]1Cc1ccc(C(F)(F)F)cc1` [PP0776] ([NMeL]I[Aze][Sar][NPrPhe(4-CF3)][Sar][hPhe(3,5-F2-4-CF3)]P[αMeL][NMeGly(cPent)][NMeD]-Morpholide; lactam N-11), the “HRAS/KRAS (ratio of KD value with respect to GDP-bound HRAS wild-type protein to KD value with respect to KRAS)” value in assay [1] (KD ratio HRAS/KRAS, SPR) was “B (a compound having 3 or more and less than 10 is denoted as B)”. For the same molecule, the “NRAS/KRAS (ratio of KD value with respect to GDP-bound NRAS wild-type protein to KD value with respect to KRAS)” value in assay [2] (KD ratio NRAS/KRAS, SPR) is “B (a compound having 3 or more and less than 10 is denoted as B)”.
Take `CCCN1C(=O)CN(C)C(=O)CN(C)C(=O)[C@H]([C@@H](C)CC)NC(=O)[C@H](CC(C)C)N(C)C(=O)C[C@@H](C(=O)N2CCOC2)N(C)C(=O)[C@H](C2CCCC2)N(C)C(=O)C2(CCCC2)NC(=O)[C@@H]2CCCN2C(=O)[C@H](CCc2ccc(C(F)(F)F)c(Cl)c2)NC(=O)CN(C)C(=O)[C@@H]1Cc1ccc(C(F)(F)F)cc1` [PP0174] ([NMeL]I[Sar][Sar][NPrPhe(4-CF3)][Sar][hPhe(3-Cl-4-CF3)]P[Ac5c][NMeGly(cPent)][NMeD]-{Oxazolidin(3-yl)}; lactam N-11): the “HRAS/KRAS (ratio of KD for GDP-bound HRAS wild-type to KD for KRAS)” value in assay [1] (KD ratio HRAS/KRAS, SPR) is “B (a compound having 3 or more and less than 10 is denoted as B)”. For the same molecule, the “NRAS/KRAS (ratio of KD for GDP-bound NRAS wild-type to KD for KRAS)” value in assay [2] (KD ratio NRAS/KRAS, SPR) was “B (a compound having 3 or more and less than 10 is denoted as B)”.
Consider `CC[C@H](C)[C@@H]1NC(=O)[C@H](CC(C)C)N(C)C(=O)C[C@@H](C(=O)N2CCOCC2)N(C)C(=O)[C@H](C2CCCC2)N(C)C(=O)C2(CCCC2)NC(=O)[C@@H]2CCCN2C(=O)[C@H](CCc2ccc(C(F)(F)F)c(Cl)c2)NC(=O)CN(C)C(=O)[C@H](Cc2ccc(OC(F)(F)F)cc2)N2CCCCC[C@@H](C2=O)N(C)C(=O)CN(C)C1=O` [PP0615], for which the “HRAS/KRAS (ratio of KD value with respect to GDP-bound HRAS wild-type protein to KD value with respect to KRAS)” value in assay [1] (KD ratio HRAS/KRAS, SPR) is “B (a compound having 3 or more and less than 10 is denoted as B)”. The “NRAS/KRAS (ratio of KD value with respect to GDP-bound NRAS wild-type protein to KD value with respect to KRAS)” value in assay [2] (KD ratio NRAS/KRAS, SPR) was “B (a compound having 3 or more and less than 10 is denoted as B)”.
As for `CCO[C@@H]1C[C@H]2C(=O)NC3(CCC3)C(=O)N(C)[C@@H](C3CCCC3)C(=O)N(C)[C@H](C(=O)N3CCOCC3)CC(=O)N(C)[C@@H](COC)C(=O)N[C@@H]([C@@H](C)CC)C(=O)N(C)CC(=O)N(C)[C@H]3CCCCCN(C3=O)[C@@H](Cc3ccc(C(F)(F)F)cc3)C(=O)N(C)CC(=O)N[C@@H](CCc3cc(F)c(C(F)(F)F)c(F)c3)C(=O)N2C1` [PP0689], the “HRAS/KRAS (ratio of KD value with respect to GDP-bound HRAS wild-type protein to KD value with respect to KRAS)” value in assay [1] (KD ratio HRAS/KRAS, SPR) was “B (a compound having 3 or more and less than 10 is denoted as B)”. Further, the “NRAS/KRAS (ratio of KD value with respect to GDP-bound NRAS wild-type protein to KD value with respect to KRAS)” value in assay [2] (KD ratio NRAS/KRAS, SPR) is “B (a compound having 3 or more and less than 10 is denoted as B)”.
Regarding `CCC[C@H]1C(=O)N[C@@H]([C@@H](C)CC)C(=O)N(C)CC(=O)N(C)[C@H]2C/C=C\CCN(C2=O)[C@@H](Cc2ccc(C(F)(F)F)cc2)C(=O)N(C)CC(=O)N[C@@H](CCc2cc(F)c(C(F)(F)F)c(F)c2)C(=O)N2C[C@H](OCC)C[C@H]2C(=O)NC2(CCC2)C(=O)N(C)[C@@H](C2CCCC2)C(=O)N(C)[C@H](C(=O)N(CC)CC)CC(=O)N1C` [PP1310], in assay [1] (SPR, KD ratio class), the “HRAS/KRAS (ratio of KD value for GDP-bound HRAS wild-type protein to KD value for KRAS)” value is “A (a compound having 10 or more and less than 20 is denoted as A)”. Moreover, the “NRAS/KRAS (ratio of KD value for GDP-bound NRAS wild-type protein to KD value for KRAS)” value in assay [2] (SPR, KD ratio class) is “AA (a compound having 20 or more is denoted as AA)”.
Consider `CCC[C@H]1C(=O)N[C@@H]([C@@H](C)CC)C(=O)N(C)CC(=O)N(C)[C@H]2C/C=C\CCN(C2=O)[C@@H](Cc2ccc(C)cc2)C(=O)N(C)CC(=O)N[C@@H](CCc2cc(Cl)c3sccc3c2)C(=O)N2C[C@H](OCC)C[C@H]2C(=O)NC2(CC(C)(C)C2)C(=O)N(C)[C@@H](C(CC)CC)C(=O)N(C)[C@H](C(=O)N(C)C)CC(=O)N1C` [PP2890], for which the “HRAS/KRAS (ratio of KD value with respect to GDP-bound HRAS wild-type protein to KD value with respect to KRAS)” value in assay [1] (KD ratio HRAS/KRAS, class symbols) was “A (a compound having 10 or more and less than 20 is denoted as A)”. Moreover, in assay [2] (KD ratio NRAS/KRAS, class symbols), the “NRAS/KRAS (ratio of KD value with respect to GDP-bound NRAS wild-type protein to KD value with respect to KRAS)” value is listed as “AA (a compound having 20 or more is denoted as AA)”.
With `CCO[C@@H]1C[C@H]2C(=O)NC3(CCC3)C(=O)N(C)[C@@H](C3CCCC3)C(=O)N(C)[C@H](C(=O)N(C)C)CC(=O)N(C)[C@@H](CC)C(=O)N[C@@H]([C@@H](C)CC)C(=O)N(C)CC(=O)N(C)[C@H]3CCCCCN(C3=O)[C@@H](Cc3ccc(F)c(OC)c3)C(=O)N(C)CC(=O)N[C@@H](CCc3cc(F)c(C(F)(F)F)c(F)c3)C(=O)N2C1` [PP0915], the “HRAS/KRAS (ratio of KD value with respect to HRAS to KD value with respect to KRAS)” value in assay [1] (KD ratio, GDP-bound HRAS wild-type vs GDP-bound KRAS wild-type, SPR) is “B (a compound having 3 or more and less than 10 is denoted as B)”. Besides, the “NRAS/KRAS (ratio of KD value with respect to NRAS to KD value with respect to KRAS)” value in assay [2] (KD ratio, GDP-bound NRAS wild-type vs GDP-bound KRAS wild-type, SPR) is “B (a compound having 3 or more and less than 10 is denoted as B)”.
